# In article PMC7356589, “Hybrid Gold(I) NHC-Artemether Complexes to Target Falciparum Malaria Parasites” (Molecules, 2020):
# Where two headings read alike, the source gives them in different places.
# Columns and labels:
# [1] = tested on: P. falciparum strain F32-TEM (F32-Tanzania); assay: In vitro antiplasmodial activity (SYBR Green fluorescence and [3H] hypoxanthine assays); format: cell-based, Plasmodium falciparum; settings: strain F32-Tanzania (F32-TEM), mean of at least 4 experiments, SYBR Green and radioactivity assays, read-out: Antiplasmodial Activity on P. falciparum IC50 ± SEM
# Method: In vitro antiplasmodial activities of the synthesized hybrid molecules were evaluated against the P. falciparum strain F32-TEM (corresponding to the parental strain F32-Tanzania). Each molecule was tested at least in three independent experiments (except Aubis(5-Bn), tested twice) by a SYBR Green Fluorescence assay but also at least once with the standard chemosensitivity assay recommended by the WHO and based on the incorporation of [^3H] hypoxanthine.
# For the SYBR Green Fluorescence assay, ring stage parasites were treated with the drugs for 48 h. Then, the pellets were washed twice with PBS and frozen at −20 °C. Thawed plates were incubated for 2 h at room temperature with the SYBR Green (Thermo-Fisher, Illkirch, France) lysis buffer (20 mm Tris base pH 7.5, 5 mm EDTA, 0.008% w/v saponin, 0.08% w/v Triton X-100). The plates were then read using a fluorescence plate reader (FLx800, BioTek, Illkirch, France) at an excitation wavelength of 485 nm and 535 nm for the emission wavelength. The IC50 values (concentration inhibiting 50% of the parasite’s growth) were determined using GraphPad Prism software 7 (GraphPad Software, San Diego, CA, USA).
# For [^3H] hypoxanthine assay, ring stage parasites were incubated with the drug dilutions for 24 h, then, [^3H] hypoxanthine (50 μL/0.25 μCi; Perkin-Elmer, Courtaboeuf, France) was added for another 24 h period. After that, plates were frozen at −20 °C. The next step is to thaw the plates and to collect the nucleic acids. Tritium incorporation was then determined thanks to a β-counter (Perkin-Elmer, Courtaboeuf, France).
# The antiplasmodial activities reported in Table 1 correspond thus to the mean of IC50 values from at least 4 independent experiments acquired by the two methods, SYBR Green and radioactivity.
# [2] = Cytotoxicity on Vero cells (MTT); format: cell-based, monkey; settings: monkey; Vero cells, 48 h, MTT; read-out: Cytotoxicity on Vero Cells IC50 ± SEM
# Method: (§1) The cells were cultured in MEM medium (Dutscher, Brumath, France) supplemented with 10% fetal bovine serum (Dutscher), 0.7 mM glutamine and 100 μg/mL gentamicin. The cells were seeded at 10^4 cells per well in a 96-well plates and incubated during 24 h. Then, cells were incubated for additional 48 h with the drugs. […] Subsequently, DMSO was added to the wells containing the cells and MTT to dissolve the formed crystals. The plates were then read to determine the absorbance at wavelength of 540 nm (µQuant, BioTek, Illkirch, France). Cell proliferation was calculated from at least three independent experiments using GraphPad Prism software 7 (GraphPad Software, San Diego, CA, USA). The cytotoxic/antiplasmodial activity ratio corresponds to the selectivity index.
# Vero cell line = assay: Cytotoxicity on Vero cells (MTT); format: cell-based, monkey; settings: for Selectivity Index Vero Cells/P. falciparum: cytotoxic/antiplasmodial activity ratio; for IC50: Vero cells, 48 h, MTT, read-out: Cytotoxicity on Vero Cells IC50 ± SEM
# Method: as §1
# [3] = tested on: P. falciparum F32-ART (artemisinin-resistant); assay: Recrudescence assay after 48 h drug exposure, F32-ART; format: cell-based, Plasmodium falciparum; settings: 48 h exposure
# Method: (§2) The Plasmodium falciparum F32-ART and F32-TEM parasite lines, resistant and sensitive to artemisinins respectively, were cultured in vitro in type O human erythrocytes (Etablissement Français du sang (EFS), Toulouse, France), diluted to 2% hematocrit, in RPMI-1640 medium (GIBCO, Illkirch, France) and supplemented with 5% Human Serum AB (EFS, Toulouse, France) at 37 °C and 5% CO2 [33]. Every other day and before each experiment, P. falciparum F32-ART and F32-TEM parasites were synchronized at ring stage using 5% D-sorbitol solution [34].
# (§3) P. falciparum strains F32-ART and F32-TEM, synchronized at ring stage parasites at 3% parasitemia and 2% hematocrit have undergone a 48 h-treatment with the drugs to be tested. The parasites were then washed with RPMI-1640 medium and re-cultivated in drug-free culture conditions with 10% human serum. The parasitemia was then monitored daily to determine the time required for each parasite culture to recover the initial parasitemia of 3%. If no parasites were seen up to 30 days, the parasites were considered as “not recrudescent” [9, 15]. The drug doses were chosen in order to discriminate the phenotype response between the artemisinin-resistant and the -sensitive strains. A range from 1-fold to >100-fold the antiplasmodial IC50 value previously found has been tested to determine the most appropriate drug dose to use in this recrudescence assay.
# [4] = tested on: P. falciparum F32-TEM (artemisinin-sensitive); assay: Recrudescence assay after 48 h drug exposure, F32-TEM; format: cell-based, Plasmodium falciparum; settings: 48 h exposure
# Method: as §2, §3
# [5] = tested on: P. falciparum F32-ART and F32-TEM strains; assay: Recrudescence assay, comparison of F32-TEM and F32-ART (cross-resistance with artemisinin); format: cell-based, Plasmodium falciparum; settings: for Mean ± SEM Difference of Recrudescence Days between F32-TEM and F32-ART: 48 h exposure; for Cross-resistance with artemisinin (result in words): recrudescence assay, F32-ART vs F32-TEM
# Method: Three hybrid molecules with the best selectivity indexes in each series, i.e., Aubis(3-Me) (14), Aubis(4-Me) (19) and Aubis(5-Me) (23), were evaluated in vitro for their efficacy in a context of resistance to artemisinins. For that, the comparison of the recovery capacity between the strain F32-ART, artemisinin-resistant, and its twin artemisinin-sensitive F32-TEM was evaluated after 48 h-treatment with the molecule to be tested via the recrudescence assay. When ring-stage resistant parasites are exposed to artemisinin, most of them die, but a small sub-set of parasites is able to escape the treatment by a cell cycle arrest, called quiescence mechanism. This phenomenon is characterized by a halt of DNA synthesis, which explains the very low IC50 values obtained with all artemisinins even for the artemisinin-resistant strain F32-ART [9, 15, 30]. Therefore, the standard in vitro chemosensitivity assay, based on the measurement of DNA levels to estimate the inhibition of the parasite proliferation, is irrelevant to study the resistance to artemisinins and evaluate possible cross-resistances.
# as §3
# [6] = Plasmodium falciparum, F32, 48 h
Structure (SMILES),"IC50 [1, 6] [nM]",IC50 at 48 h [2] [µM],Selectivity Index Vero Cells/P. falciparum (Vero cell line),IC50 ([1]; 48 h) [nM],IC50 (Vero cell line) [nM],"Median (range) Recrudescence Days, F32-ART ([3]; dose 500 nM)","Median (range) Recrudescence Days, F32-TEM ([4]; dose 500 nM)",Mean ± SEM Difference of Recrudescence Days between F32-TEM and F32-ART ([5]; dose 500 nM) [days],Cross-resistance with artemisinin (result in words) [5],further results
"C[C@@H]1CC[C@H]2[C@@H](C)C(=O)O[C@@H]3O[C@@]4(C)CC[C@@H]1[C@]32OO4 [Artemisinin, reference compound]",18 ± 2,130,7 000,–,–,–,–,–,–,"Median (range) Recrudescence Days, F32-ART ([3]; dose 18 µM): 9.5 (6–17) days; Median (range) Recrudescence Days, F32-TEM ([4]; dose 18 µM): 18.5 (17–>30) days; Mean ± SEM Difference of Recrudescence Days between F32-TEM and F32-ART ([5]; dose 18 µM): 9.7 ± 0.3 days; Mean ± SEM Difference of Recrudescence Days between F32-TEM and F32-ART ([5]; dose 18 µM, listed as artemisinin): 9.7 days"
C[C@@H]1CCC2[C@@H](C)[C@@H](OCCCn3cc[n+](C)[c]3[Au-][c]3n(CCCO[C@H]4O[C@@H]5O[C@@]6(C)CCC7[C@H](C)CCC([C@H]4C)[C@]75OO6)cc[n+]3C)O[C@@H]3O[C@@]4(C)CCC1[C@@]23OO4.O=[N+]([O-])[O-] (stereo partly drawn) [Aubis(3-Me)],–,–,–,35 ± 8,5000,8 days,24 days,16,cross-resistance,"Median (range) Recrudescence Days, F32-ART ([3]; dose 200 nM): 7 (7–13) days; Median (range) Recrudescence Days, F32-TEM ([4]; dose 200 nM): 14 (11–16) days; Mean ± SEM Difference of Recrudescence Days between F32-TEM and F32-ART ([5]; dose 200 nM): 4.6 ± 1.2 days"
C[C@@H]1CCC2[C@@H](C)[C@@H](OCCCCn3cc[n+](C)[c]3[Au-][c]3n(CCCCO[C@H]4O[C@@H]5O[C@@]6(C)CCC7[C@H](C)CCC([C@H]4C)[C@]75OO6)cc[n+]3C)O[C@@H]3O[C@@]4(C)CCC1[C@@]23OO4.[Cl-] (stereo partly drawn) [Aubis(4-Me)],–,–,–,13 ± 3,800,12.5 (11–14) days,>30 days,>17.5 ± 1.5,cross-resistance,"Median (range) Recrudescence Days, F32-ART ([3]; dose 100 nM): 5 days; Median (range) Recrudescence Days, F32-ART ([3]; dose 1 µM): 16 days; Median (range) Recrudescence Days, F32-TEM ([4]; dose 100 nM): 6 days; Median (range) Recrudescence Days, F32-TEM ([4]; dose 1 µM): 30 days; Mean ± SEM Difference of Recrudescence Days between F32-TEM and F32-ART ([5]; dose 100 nM): 1 days; Mean ± SEM Difference of Recrudescence Days between F32-TEM and F32-ART ([5]; dose 1 µM): 14 days"
"Cc1cc(C)c(-[n+]2ccn(CCCCCO[C@H]3O[C@@H]4O[C@@]5(C)CCC6[C@H](C)CCC([C@H]3C)[C@]64OO5)c2)c(C)c1 (stereo partly drawn) [L5-Mes, 3′-Mesityl-1′-[10β-(22-pentoxy)dihydroartemisinin]1H-imidazol-3-ium bromide]",< 100,25,255,98 ± 24,–,–,–,–,–,–
"C[C@@H]1CCC2[C@@H](C)[C@@H](OCCCBr)O[C@@H]3O[C@@]4(C)CCC1[C@@]23OO4 (stereo partly drawn) [DHA-C3, 10β-(20-Bromopropoxy)dihydroartemisinin]",8.5 ± 3,2.5,294,–,–,–,–,–,–,–
"C[C@@H]1CCC2[C@@H](C)[C@@H](OCCCCCn3cc[n+](Cc4ccccc4)c3)O[C@@H]3O[C@@]4(C)CCC1[C@@]23OO4 (stereo partly drawn) [L5-Bn, 3′-Benzyl-1′-[10β-(22-pentoxy)dihydroartemisinin]1H-imidazol-3-ium bromide]",< 100,1,10,98 ± 26,–,–,–,–,–,–
C[C@@H]1CCC2[C@@H](C)[C@@H](OCCCCCn3cc[n+](C)[c]3[Au-][c]3n(CCCCCO[C@H]4O[C@@H]5O[C@@]6(C)CCC7[C@H](C)CCC([C@H]4C)[C@]75OO6)cc[n+]3C)O[C@@H]3O[C@@]4(C)CCC1[C@@]23OO4.[Cl-] (stereo partly drawn) [Aubis(5-Me)],–,–,–,9 ± 0.9,1000,9.5 (8–11) days,>25.5 (21–>30) days,>16,cross-resistance,"Median (range) Recrudescence Days, F32-ART ([3]; dose 100 nM): 6 days; Median (range) Recrudescence Days, F32-ART ([3]; dose 1 µM): 9 days; Median (range) Recrudescence Days, F32-TEM ([4]; dose 100 nM): 15 days; Median (range) Recrudescence Days, F32-TEM ([4]; dose 1 µM): 30 days; Mean ± SEM Difference of Recrudescence Days between F32-TEM and F32-ART ([5]; dose 100 nM): 9 days; Mean ± SEM Difference of Recrudescence Days between F32-TEM and F32-ART ([5]; dose 1 µM): 21 days"
